Measured values taken from US11572590B2, “Methods for evaluating tumor cell spheroids using 3D microfluidic cell culture device” (Dana-Farber Cancer Institute, Inc., priority 2017, dated 2023).
Where two headings read alike, the source gives them in different places.

Assays:
Assay in all cases: SelectScreen Kinase Profiling, single point inhibition and IC50 for off-target kinases
Type in all cases: biochemical
off-target kinases [1] = molecular target: off-target kinases (Homo sapiens, UniProt P30530, R499C); conditions: AXL R499C, mutant y, LanthaScreen Binding
off-target kinases [2] = molecular target: off-target kinases (Homo sapiens, UniProt P31751); conditions: AKT2 (PKB beta), ZLYTE, ATP Km app
off-target kinases [3] = molecular target: off-target kinases (Homo sapiens, UniProt P42684); conditions: ABL2 (Arg), ZLYTE, ATP Km app
off-target kinases [4] = molecular target: off-target kinases (Homo sapiens, UniProt P54764); conditions: EPHA4, ZLYTE, ATP Km app
off-target kinases [5] = molecular target: off-target kinases (Homo sapiens, UniProt Q8NEB9); conditions: PIK3C3 (hVPS34); Cmpd1 1000 μM; ATP Km app; Adapta
off-target kinases [6] = molecular target: off-target kinases (Homo sapiens, UniProt Q9BYT3); conditions: STK33, LanthaScreen Binding
off-target kinases [7] = molecular target: T1, off-target kinases (Homo sapiens, UniProt Q9H093); conditions: NUAK2, LanthaScreen Binding
T1 sequence (Q9H093 1-628): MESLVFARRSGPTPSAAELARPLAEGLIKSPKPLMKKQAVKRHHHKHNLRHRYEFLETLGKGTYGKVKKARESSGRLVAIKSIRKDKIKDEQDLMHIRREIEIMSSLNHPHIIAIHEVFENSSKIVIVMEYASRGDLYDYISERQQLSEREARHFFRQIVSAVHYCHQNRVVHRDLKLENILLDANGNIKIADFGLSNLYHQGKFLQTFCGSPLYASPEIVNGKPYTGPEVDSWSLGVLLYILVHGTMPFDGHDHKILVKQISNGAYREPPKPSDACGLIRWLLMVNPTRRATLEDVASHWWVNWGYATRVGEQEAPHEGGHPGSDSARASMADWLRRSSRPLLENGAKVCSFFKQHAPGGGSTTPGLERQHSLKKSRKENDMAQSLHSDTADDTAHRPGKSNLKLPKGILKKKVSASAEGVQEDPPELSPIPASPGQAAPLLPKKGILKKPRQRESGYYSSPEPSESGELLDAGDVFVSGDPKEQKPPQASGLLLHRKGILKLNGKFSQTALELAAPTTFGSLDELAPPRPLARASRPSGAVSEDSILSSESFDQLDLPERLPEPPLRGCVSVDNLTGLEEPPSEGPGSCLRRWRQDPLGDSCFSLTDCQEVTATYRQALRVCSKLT

off-target kinases [8] = molecular target: off-target kinases (Homo sapiens, UniProt Q9H1R3); conditions: MYLK2 (skMLCK), ATP Km app, ZLYTE
off-target kinases [9] = molecular target: off-target kinases (Homo sapiens, UniProt Q9NY57); conditions: STK32B (YANK2), LanthaScreen Binding
off-target kinases [10] = molecular target: off-target kinases (Homo sapiens, UniProt Q9P286); conditions: PAK7 (KIAA1264), ATP Km app, ZLYTE
off-target kinases [11] = molecular target: off-target kinases (Homo sapiens, UniProt Q9Y2K2); conditions: SIK3, LanthaScreen Binding
Sequence of off-target kinases (Homo sapiens, UniProt Q9Y2K2) (Q9Y2K2 whole entry): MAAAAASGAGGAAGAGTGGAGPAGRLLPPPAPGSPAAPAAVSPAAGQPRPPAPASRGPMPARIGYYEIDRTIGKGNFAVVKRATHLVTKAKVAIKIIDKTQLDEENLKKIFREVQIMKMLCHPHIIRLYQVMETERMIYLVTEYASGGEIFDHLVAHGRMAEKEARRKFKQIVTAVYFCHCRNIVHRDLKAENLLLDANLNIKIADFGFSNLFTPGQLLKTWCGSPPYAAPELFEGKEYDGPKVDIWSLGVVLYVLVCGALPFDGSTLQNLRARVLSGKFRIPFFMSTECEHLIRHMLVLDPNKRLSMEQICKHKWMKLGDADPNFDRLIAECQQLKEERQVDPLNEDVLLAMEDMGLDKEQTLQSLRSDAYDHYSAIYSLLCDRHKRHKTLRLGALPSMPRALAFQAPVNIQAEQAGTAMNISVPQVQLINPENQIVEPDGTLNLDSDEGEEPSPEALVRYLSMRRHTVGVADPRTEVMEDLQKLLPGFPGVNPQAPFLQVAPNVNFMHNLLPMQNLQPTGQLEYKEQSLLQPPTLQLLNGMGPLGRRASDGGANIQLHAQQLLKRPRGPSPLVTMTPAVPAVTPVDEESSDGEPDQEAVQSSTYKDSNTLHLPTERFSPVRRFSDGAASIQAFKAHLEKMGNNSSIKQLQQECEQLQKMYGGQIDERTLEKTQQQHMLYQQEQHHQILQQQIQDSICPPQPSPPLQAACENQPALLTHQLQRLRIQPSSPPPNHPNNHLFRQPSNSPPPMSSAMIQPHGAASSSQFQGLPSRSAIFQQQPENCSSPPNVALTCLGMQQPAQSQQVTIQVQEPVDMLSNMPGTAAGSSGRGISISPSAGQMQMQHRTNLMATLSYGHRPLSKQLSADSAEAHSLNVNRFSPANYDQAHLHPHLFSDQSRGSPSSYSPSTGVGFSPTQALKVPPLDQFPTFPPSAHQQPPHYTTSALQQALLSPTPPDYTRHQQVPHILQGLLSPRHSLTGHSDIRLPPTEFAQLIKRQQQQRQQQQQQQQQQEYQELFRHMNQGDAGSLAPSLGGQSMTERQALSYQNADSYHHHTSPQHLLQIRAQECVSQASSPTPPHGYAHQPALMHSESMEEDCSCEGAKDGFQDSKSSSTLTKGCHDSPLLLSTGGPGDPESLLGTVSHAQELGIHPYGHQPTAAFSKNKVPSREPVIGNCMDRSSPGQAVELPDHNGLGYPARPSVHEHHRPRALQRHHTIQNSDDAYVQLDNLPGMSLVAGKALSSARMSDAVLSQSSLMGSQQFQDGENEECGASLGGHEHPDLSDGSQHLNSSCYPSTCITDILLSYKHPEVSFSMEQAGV

Sequence of off-target kinases (Homo sapiens, UniProt Q9P286) (Q9P286 whole entry): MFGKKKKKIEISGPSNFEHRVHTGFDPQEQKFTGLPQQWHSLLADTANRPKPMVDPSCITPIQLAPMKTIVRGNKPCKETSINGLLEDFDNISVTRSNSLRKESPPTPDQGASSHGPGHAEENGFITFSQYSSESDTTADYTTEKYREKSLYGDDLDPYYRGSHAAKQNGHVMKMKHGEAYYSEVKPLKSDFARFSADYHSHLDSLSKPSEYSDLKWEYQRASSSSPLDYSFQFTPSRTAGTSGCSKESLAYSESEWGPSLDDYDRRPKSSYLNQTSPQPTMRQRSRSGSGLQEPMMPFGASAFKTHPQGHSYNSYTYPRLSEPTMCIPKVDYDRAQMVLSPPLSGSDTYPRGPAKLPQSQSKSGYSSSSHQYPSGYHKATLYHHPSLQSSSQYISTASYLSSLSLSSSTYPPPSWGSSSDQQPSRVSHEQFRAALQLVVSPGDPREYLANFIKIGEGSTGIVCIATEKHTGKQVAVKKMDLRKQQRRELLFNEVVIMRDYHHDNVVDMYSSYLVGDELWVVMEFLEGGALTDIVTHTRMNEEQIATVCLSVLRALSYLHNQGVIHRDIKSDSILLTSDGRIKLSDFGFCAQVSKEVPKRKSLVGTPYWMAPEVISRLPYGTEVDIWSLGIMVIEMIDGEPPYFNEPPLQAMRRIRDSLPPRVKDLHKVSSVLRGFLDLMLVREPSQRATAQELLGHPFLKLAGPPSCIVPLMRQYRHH
Sequence of off-target kinases (Homo sapiens, UniProt Q9H1R3) (Q9H1R3 whole entry): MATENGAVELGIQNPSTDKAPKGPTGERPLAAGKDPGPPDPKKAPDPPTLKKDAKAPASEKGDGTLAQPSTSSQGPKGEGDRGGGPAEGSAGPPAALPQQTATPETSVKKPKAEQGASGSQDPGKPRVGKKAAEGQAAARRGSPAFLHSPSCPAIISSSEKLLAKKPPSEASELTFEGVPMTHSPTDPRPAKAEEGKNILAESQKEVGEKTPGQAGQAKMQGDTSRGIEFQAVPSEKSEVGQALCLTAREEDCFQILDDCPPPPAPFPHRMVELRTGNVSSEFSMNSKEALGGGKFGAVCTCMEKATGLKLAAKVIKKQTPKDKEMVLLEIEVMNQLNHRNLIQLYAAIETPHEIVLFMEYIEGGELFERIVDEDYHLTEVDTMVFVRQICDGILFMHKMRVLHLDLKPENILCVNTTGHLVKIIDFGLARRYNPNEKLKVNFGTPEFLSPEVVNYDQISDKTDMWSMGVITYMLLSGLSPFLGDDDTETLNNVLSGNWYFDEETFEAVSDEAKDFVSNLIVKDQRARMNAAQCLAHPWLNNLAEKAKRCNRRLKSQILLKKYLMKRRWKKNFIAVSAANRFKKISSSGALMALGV
Sequence of off-target kinases (Homo sapiens, UniProt Q8NEB9) (Q8NEB9 whole entry): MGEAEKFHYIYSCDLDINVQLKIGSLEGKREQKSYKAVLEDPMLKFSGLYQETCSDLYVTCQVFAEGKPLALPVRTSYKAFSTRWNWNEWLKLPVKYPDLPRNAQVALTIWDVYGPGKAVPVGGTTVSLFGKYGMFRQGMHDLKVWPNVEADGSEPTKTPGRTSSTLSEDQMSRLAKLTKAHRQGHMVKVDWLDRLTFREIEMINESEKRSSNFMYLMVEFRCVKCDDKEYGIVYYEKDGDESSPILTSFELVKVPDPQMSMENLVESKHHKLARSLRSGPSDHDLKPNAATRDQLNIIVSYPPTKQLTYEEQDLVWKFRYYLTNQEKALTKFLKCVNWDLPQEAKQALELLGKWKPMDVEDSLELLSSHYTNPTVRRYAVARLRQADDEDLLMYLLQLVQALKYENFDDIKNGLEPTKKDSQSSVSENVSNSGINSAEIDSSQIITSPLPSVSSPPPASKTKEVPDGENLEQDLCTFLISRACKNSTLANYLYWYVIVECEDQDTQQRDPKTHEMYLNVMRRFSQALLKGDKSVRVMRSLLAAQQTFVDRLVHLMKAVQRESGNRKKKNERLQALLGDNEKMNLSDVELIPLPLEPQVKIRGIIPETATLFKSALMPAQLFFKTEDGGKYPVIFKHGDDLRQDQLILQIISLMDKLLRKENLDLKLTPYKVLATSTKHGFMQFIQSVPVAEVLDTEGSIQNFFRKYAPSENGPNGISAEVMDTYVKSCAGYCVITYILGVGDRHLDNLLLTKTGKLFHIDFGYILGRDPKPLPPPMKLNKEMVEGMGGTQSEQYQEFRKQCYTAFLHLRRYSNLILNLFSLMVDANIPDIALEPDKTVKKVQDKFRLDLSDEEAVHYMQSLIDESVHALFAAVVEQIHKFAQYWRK
Sequence of off-target kinases (Homo sapiens, UniProt Q9NY57) (Q9NY57 whole entry): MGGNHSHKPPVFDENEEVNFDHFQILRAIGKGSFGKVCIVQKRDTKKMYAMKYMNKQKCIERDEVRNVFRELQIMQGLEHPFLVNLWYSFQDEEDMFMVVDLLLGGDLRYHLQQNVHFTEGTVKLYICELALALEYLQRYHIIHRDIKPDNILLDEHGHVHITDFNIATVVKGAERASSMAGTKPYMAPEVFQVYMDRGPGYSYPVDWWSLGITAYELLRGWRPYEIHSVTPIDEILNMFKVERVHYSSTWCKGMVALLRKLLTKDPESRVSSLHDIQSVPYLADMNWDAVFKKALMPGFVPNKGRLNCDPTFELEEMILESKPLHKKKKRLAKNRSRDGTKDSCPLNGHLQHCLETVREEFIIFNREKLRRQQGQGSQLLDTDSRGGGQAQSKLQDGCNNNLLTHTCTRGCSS
Sequence of off-target kinases (Homo sapiens, UniProt Q9BYT3) (Q9BYT3 whole entry): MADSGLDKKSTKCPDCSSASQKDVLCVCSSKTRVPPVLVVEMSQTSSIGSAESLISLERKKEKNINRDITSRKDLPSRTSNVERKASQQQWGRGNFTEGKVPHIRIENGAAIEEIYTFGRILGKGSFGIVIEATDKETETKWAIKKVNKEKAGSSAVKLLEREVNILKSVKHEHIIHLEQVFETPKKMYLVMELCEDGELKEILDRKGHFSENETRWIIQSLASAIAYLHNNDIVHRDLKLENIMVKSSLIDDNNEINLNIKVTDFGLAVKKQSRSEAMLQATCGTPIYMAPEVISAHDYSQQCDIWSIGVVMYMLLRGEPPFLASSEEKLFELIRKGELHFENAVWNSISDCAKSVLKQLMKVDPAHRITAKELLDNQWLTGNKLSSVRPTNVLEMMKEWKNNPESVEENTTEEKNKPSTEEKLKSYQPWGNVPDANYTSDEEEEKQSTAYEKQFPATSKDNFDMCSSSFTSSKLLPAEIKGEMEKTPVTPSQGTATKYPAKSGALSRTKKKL
Sequence of off-target kinases (Homo sapiens, UniProt P31751) (P31751 whole entry): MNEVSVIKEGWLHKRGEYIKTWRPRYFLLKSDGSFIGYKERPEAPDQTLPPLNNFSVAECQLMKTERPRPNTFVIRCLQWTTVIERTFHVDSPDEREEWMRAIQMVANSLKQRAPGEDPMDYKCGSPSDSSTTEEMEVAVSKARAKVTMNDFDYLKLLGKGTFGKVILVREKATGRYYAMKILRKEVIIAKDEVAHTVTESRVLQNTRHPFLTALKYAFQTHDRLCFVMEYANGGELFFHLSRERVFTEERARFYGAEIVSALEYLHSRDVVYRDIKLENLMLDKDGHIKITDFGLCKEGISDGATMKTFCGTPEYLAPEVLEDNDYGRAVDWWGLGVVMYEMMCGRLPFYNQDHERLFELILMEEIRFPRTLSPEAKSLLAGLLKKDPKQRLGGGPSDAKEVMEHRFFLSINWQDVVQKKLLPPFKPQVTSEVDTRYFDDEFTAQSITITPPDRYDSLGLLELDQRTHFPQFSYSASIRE

SMILES: N#Cc1cc(-c2ncnc(Nc3ccc(N4CCN(C5COC5)CC4)cc3)n2)ccc1OC1CCOCC1 [Compound 1, 5-(4-((4-(4-(oxetan-3-yl)piperazin-1-yl)phenyl)amino)-1,3,5-triazin-2-yl)-2-((tetrahydro-2H-pyran-4-yl)oxy)benzonitrile]
- inhibition (off-target kinases [1]; read-out: % Inhibition 1): 28%
- inhibition (off-target kinases [1]; read-out: % Inhibition 2): 27%
- inhibition (off-target kinases [1]; read-out: % Inhibition Avg): 27%
- inhibition (off-target kinases [2]; read-out: % Inhibition 1): 3%
- inhibition (off-target kinases [2]; read-out: % Inhibition 2): 2%
- inhibition (off-target kinases [2]; read-out: % Inhibition Avg): 3%
- inhibition (off-target kinases [3]; read-out: % Inhibition 1): 40%
- inhibition (off-target kinases [3]; read-out: % Inhibition 2): 39%
- inhibition (off-target kinases [3]; read-out: % Inhibition Avg): 40%
- inhibition (off-target kinases [4]; read-out: % Inhibition 1): 18%
- inhibition (off-target kinases [4]; read-out: % Inhibition 2): 21%
- inhibition (off-target kinases [4]; read-out: % Inhibition Avg): 20%
- % Inhibition 1 (off-target kinases [5]): −5%
- % Inhibition 2 (off-target kinases [5]): −9%
- % Inhibition Avg (off-target kinases [5]): −7%
- inhibition (off-target kinases [6]; read-out: % Inhibition 1): 59%
- inhibition (off-target kinases [6]; read-out: % Inhibition 2): 55%
- inhibition (off-target kinases [6]; read-out: % Inhibition Avg): 57%
- inhibition (off-target kinases [7]; read-out: % Inhibition 1): 54%
- inhibition (off-target kinases [7]; read-out: % Inhibition 2): 52%
- inhibition (off-target kinases [7]; read-out: % Inhibition Avg): 53%
- inhibition (off-target kinases [8]; read-out: % Inhibition 1): 65%
- inhibition (off-target kinases [8]; read-out: % Inhibition 2): 60%
- inhibition (off-target kinases [8]; read-out: % Inhibition Avg): 63%
- inhibition (off-target kinases [9]; read-out: % Inhibition 1): 1%
- inhibition (off-target kinases [9]; read-out: % Inhibition 2): 8%
- inhibition (off-target kinases [9]; read-out: % Inhibition Avg): 5%
- inhibition (off-target kinases [10]; read-out: % Inhibition 1): 77%
- inhibition (off-target kinases [10]; read-out: % Inhibition 2): 79%
- inhibition (off-target kinases [10]; read-out: % Inhibition Avg): 78%
- inhibition (off-target kinases [11]; read-out: % Inhibition 1): 98%
- inhibition (off-target kinases [11]; read-out: % Inhibition 2): 95%
- inhibition (off-target kinases [11]; read-out: % Inhibition Avg): 96%
